# Source: patent US20030138533A1, “Food and beverage perservative” (Nutraceutical Clinical Laboratories International, Inc., priority 2002, published 2003)
# Tested on: mold
# Assay: Mold growth in white pan bread during storage (shelf-life test)
# Settings: white pan bread mix; test preservative about 3.5% of total mix weight, control 0.27% calcium propionate; same packaging and storage; 90 day test period
# Procedure: The test sample preservative composition as shown in Table 1 was added to white pan bread mix in the final minute of mixing after yeast and salt had been blended into the mixture. The preservative composition comprised about 3.5% of the total weight of the mix. A control sample containing 0.27% calcium propionate was added to another identical sample of white pan bread mix. The control sample molded in 12 days. The test sample remained free of any sign of mold growth during a 90 day test period. Both the test sample and the control sample were packaged and stored in the same conditions throughout the test period.
structure (smiles),measurement,value
CCC(=O)[O-].CCC(=O)[O-].[Ca+2] [calcium propionate],time without mold growth (time until the bread sample molded),12 days
